Literature values in US6939400B2, “Ink, production method of the same materials for producing the same and printed matter with the same” (Teikoku Printing Mfg. Co., Ltd., priority 2002, dated 2005).

Tested on: mouse

In the case of `COC(C)(C)CCO` [3-methyl-3-methoxy-1-butanol], the “LD 50 value representing the mouse oral toxicity” value is given as 5,830 mg/kg.
